From publication PMC7582770, “Synthesis of “All-Cis” Trihydroxypiperidines from a Carbohydrate-Derived Ketone: Hints for the Design of New β-Gal and GCase Inhibitors” (Molecules, 2020)

Assays:
[1] = target: T1, human lysosomal β-galactosidase (β-Gal) (Homo sapiens, UniProt P16278); experiment: β-Gal inhibition in human leukocyte homogenates; type: biochemical; conditions: compounds 1 mM; human leukocytes extracts
T1 construct: in leukocytes isolated from healthy donors (controls); endogenous in cells; host or cells: human leukocytes from healthy donors, disrupted by sonication (crude homogenate)
T1 sequence (P16278 29-677): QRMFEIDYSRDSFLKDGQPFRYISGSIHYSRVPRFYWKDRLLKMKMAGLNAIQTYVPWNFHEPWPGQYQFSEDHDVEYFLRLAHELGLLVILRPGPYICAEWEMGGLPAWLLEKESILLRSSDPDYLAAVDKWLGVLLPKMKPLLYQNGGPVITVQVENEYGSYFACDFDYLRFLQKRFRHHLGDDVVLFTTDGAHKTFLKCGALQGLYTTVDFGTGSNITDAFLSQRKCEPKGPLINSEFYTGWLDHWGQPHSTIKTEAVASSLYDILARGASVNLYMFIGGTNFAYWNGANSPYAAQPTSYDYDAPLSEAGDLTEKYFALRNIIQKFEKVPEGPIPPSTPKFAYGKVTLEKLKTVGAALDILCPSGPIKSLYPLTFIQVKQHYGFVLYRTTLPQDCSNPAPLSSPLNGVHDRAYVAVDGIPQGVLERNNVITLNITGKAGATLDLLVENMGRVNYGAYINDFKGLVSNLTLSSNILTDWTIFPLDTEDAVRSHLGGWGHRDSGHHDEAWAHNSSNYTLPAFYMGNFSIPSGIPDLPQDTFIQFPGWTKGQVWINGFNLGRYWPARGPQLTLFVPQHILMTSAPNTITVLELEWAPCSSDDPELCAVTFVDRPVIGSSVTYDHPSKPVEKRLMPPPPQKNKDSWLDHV
Experimental: The new compounds were screened at 1 mM concentration towards β-galactosidase (β-Gal) and β-glucosidase (GCase) in leukocytes isolated from healthy donors (controls). Isolated leukocytes were disrupted by sonication, and a Micro BCA Protein Assay Kit (Sigma–Aldrich, St. Louis, MO, USA) was used to determine the total protein amount for the enzymatic assay, according to the manufacturer’s instructions.
β-Gal activity was measured in a flat-bottomed 96-well plate. Azasugar solution (3 μL), 4.29 μg/μL leukocytes homogenate 1:10 (7 μL), and substrate 4-methylumbelliferyl β-D-galactopyranoside (1.47 mM, 20 μL, Sigma–Aldrich) in acetate buffer (0.1 M, pH 4.3) containing NaCl (0.1 M) and sodium azide (0.02%) were incubated at 37 °C for 1 h. The reaction was stopped by addition of sodium carbonate (200 μL; 0.5 M, pH 10.7) containing Triton X-100 (0.0025%), and the fluorescence 4-methylumbelliferone released by β-galactosidase activity was measured in SpectraMax M2 Microplate Reader (λex = 365 nm and λem = 435 nm; Molecular Devices LLC, San Jose, CA, US). Inhibition is given with respect to the control (without azasugar). Data are mean SD (n = 3).

[2] = system: α-glucosidase EC 3.2.1.20; experiment: Commercial glycosidase screening; type: biochemical, rice; conditions: 0.1 mM inhibitor
Excerpt: (§1) A panel of 12 commercial glycosidases (α-L-fucosidase EC 3.2.1.51 from Homo sapiens, α-galactosidase EC 3.2.1.22 from coffee beans, β-galactosidases EC 3.2.1.23 from Escherichia coli and Aspergillus oryzae, α-glucosidases EC 3.2.1.20 from yeast and rice, amyloglucosidase EC 3.2.1.3 from Aspergillus niger, β-glucosidase EC 3.2.1.21 from almonds, α-mannosidase EC 3.2.1.24 from Jack beans, β-mannosidase EC 3.2.1.25 from snail, β-N-acetylglucosaminidases EC 3.2.1.52 from Jack beans and bovine kidney) purchased from Sigma-Aldrich (St. Louis, MO, USA) or Megazyme Ltd. (Bray, Co. Wicklow, Ireland) was screened.
(§2) The percentage (%) of inhibition towards the corresponding glycosidase was determined in quadruplicate in the presence of 100 μM of the inhibitor on the well. Each enzymatic assay (final volume 0.12 mL) contains 0.01–0.5 units/mL of the enzyme (with previous calibration) and 4.2 mM aqueous solution of the appropriate p-nitrophenyl glycopyranoside (substrate) buffered to the optimal pH of the enzyme. Enzyme and inhibitor were preincubated for 5 min at room temperature, and the reaction started by addition of the substrate. After 20 min of incubation at 37 °C, the reaction was stopped by the addition of 0.1 mL of sodium borate solution (pH 9.8). The p-nitrophenolate formed was measured by visible absorption spectroscopy at 405 nm (Asys Expert 96 spectrophotometer, Biochrom Ltd., Cambridge, England). Under these conditions, the p-nitrophenolate released led to optical densities linear with both reaction time and concentration of the enzyme (for more details, see the Supplementary Materials). The IC50 value (concentration of inhibitor required for 50% inhibition of enzyme activity) was determined from plots of % inhibition vs. different inhibitor concentrations. Each point of the graph is the average of four measures. The standard deviation for each point has been also represented in the graph.

[3] = system: α-glucosidase EC 3.2.1.20; experiment: Commercial glycosidase screening; type: biochemical, yeast; conditions: 0.1 mM inhibitor
Excerpt: as §1, §2

[4] = system: β-mannosidase EC 3.2.1.25; experiment: Commercial glycosidase screening; type: biochemical, snail; conditions: 0.1 mM inhibitor
Excerpt: as §1, §2

[5] = system: β-glucosidase EC 3.2.1.21; experiment: Commercial glycosidase screening; type: biochemical, almonds; conditions: for % Inhibition at 0.1 mM, β-glucosidase almonds: 0.1 mM inhibitor
Excerpt: as §1, §2

Row | Structure (SMILES) | inhibition at 1000 µM [1] [%] | % Inhibition at 0.1 mM, α-glucosidase rice [2] | % Inhibition at 0.1 mM, α-glucosidase yeast [3] | % Inhibition at 0.1 mM, β-mannosidase snail [4] | % Inhibition at 0.1 mM, β-glucosidase almonds [5] | IC50 ([5]; read-out: IC50 (β-glucosidase from almonds)) [µM]
1 | CCCCCCCCCO[C@H]1CNC[C@@H](O)[C@H]1O [compound 9, (3S, 4R, 5R)-4,5-Dihydroxy-3-(Nonyloxy) Piperidine] | 22 |  |  |  |  | 
2 | CCCCCCCCCCCCN[C@H]1CNC[C@@H](O)[C@H]1O [compound 10, (3R, 4S, 5S)-3,4-Dihydroxy-5-(Dodecylamino) Piperidine] | 0 | - (no inhibition detected) | - (no inhibition detected) | - (no inhibition detected) | 51±1% | 85
3 | CCCCCCCC[C@]1(O)CNC[C@@H](O)[C@H]1O [compound 12, (3S, 4R, 5R)-3,4,5-Trihydroxy-3-Octyl-Piperidine] | 0 | - (no inhibition detected) | - (no inhibition detected) | - (no inhibition detected) | - (no inhibition detected) | 
4 | CCCCCCCCCO[C@@H]1CNC[C@@H](O)[C@H]1O [compound 21, (3R, 4R, 5R)-4,5-Dihydroxy-3-(Nonyloxy) Piperidine] | 0 | - (no inhibition detected) | - (no inhibition detected) | - (no inhibition detected) | - (no inhibition detected) | 
